In the supplement of paper PMC11208160:

Assay: recombinant UMI read abundance after kanamycin selection (control-corrected) (log10(CPM+1)); higher = more efficient recombination; extreme values may be limits of the assay; sequences stand for … in AGTGCAGAGAAAATCGGCCAGTTTTCTCTGCCTGCAGTCCGCATGCCGTGGGACCCCTTGGGTTCTAACCTGTTGCCTAGATTTATGCAGCGGACTGCCTTTCTCCCAAAGTGATAAACCGG…AGGTTGGTTTCACT; site = the 11-nt donor
Procedure: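 Pooled E. coli donor-specificity screen for the IS621 bridge recombinase. Each library member carries a reprogrammed 11-nt donor and a full-length LE bridge RNA expressed in cis from the natural promoter, with a paired donor-binding loop (8-nt LDG + 4-nt RDG) and a target-binding loop fixed to T5. It is co-electroporated with a T5 target plasmid; recombinase is induced with 0.07 mM IPTG and recombinants are selected on kanamycin. UMIs are counted as CPM, averaged over two biological replicates and corrected by the unselected control. Molecule = full bridge RNA written as DNA, built from the T5 scaffold: LDG = donor specificity nt 1-8, RDG = reverse complement of nt 8-11.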
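Note: IS621 bridge recombinase in Escherichia coli cells against a fixed T5 target plasmid.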

Sequence | recombinant UMI read abundance (log10)
ACGTTTACATGGACCGGTTTTCCCGGTAATCCGTATTTGCT (site ACGTTTACTAG) | 2.06
ACGTTTACATGGACCGGTTTTCCCGGTAATCCGTATTTGCT (site CCGTTTACTAG) | 1.53
ACGTTTACATGGACCGGTTTTCCCGGTAATCCGTATTTGCT (site GCGTTTACTAG) | 0.666
ACGTTTACATGGACCGGTTTTCCCGGTAATCCGTATTTGCT (site TCGTTTACTAG) | 1.37
ACGTTTGCATGGACCGGTTTTCCCGGTAATCCGTATTTGTC (site ACGTTTGCTGA) | 1.45
ACTAAGTCATGGACCGGTTTTCCCGGTAATCCGTATTTGAG (site ACTAAGTCTCT) | 2.46
ACTACACCATGGACCGGTTTTCCCGGTAATCCGTATTTGCC (site ACTACACCTGG) | 0
ACTACAGCATGGACCGGTTTTCCCGGTAATCCGTATTTGAC (site ACTACAGCTGT) | 2.36
ACTACCCCATGGACCGGTTTTCCCGGTAATCCGTATTTGAC (site ACTACCCCTGT) | 0.736
ACTAGAACATGGACCGGTTTTCCCGGTAATCCGTATTTGGG (site ACTAGAACTCA) | 0.0109
ACTAGAACATGGACCGGTTTTCCCGGTAATCCGTATTTGGG (site ACTAGAACTCC) | 0.113
ACTAGAACATGGACCGGTTTTCCCGGTAATCCGTATTTGGG (site ACTAGAACTCG) | 0.00448
ACTAGAACATGGACCGGTTTTCCCGGTAATCCGTATTTGGG (site ACTAGAACTCT) | 0.0325
ACTAGAACATGGACCGGTTTTCCCGGTAATCCGTATTTGTG (site ACTAGAACTCA) | 1.35
ACTAGAACATGGACCGGTTTTCCCGGTAATCCGTATTTGTG (site ACTAGAACTCC) | 0.0298
ACTAGAACATGGACCGGTTTTCCCGGTAATCCGTATTTGTG (site ACTAGAACTCG) | 0.285

Sequence | recombinant UMI read abundance (log10)
ACTAGAACATGGACCGGTTTTCCCGGTAATCCGTATTTGTG (site ACTAGAACTCT) | 0
ACTAGTGCATGGACCGGTTTTCCCGGTAATCCGTATTTGGA (site ACTAGTGCTAC) | 0
ACTAGTGCATGGACCGGTTTTCCCGGTAATCCGTATTTGGA (site ACTAGTGCTCC) | 0.0115
ACTAGTGCATGGACCGGTTTTCCCGGTAATCCGTATTTGGA (site ACTAGTGCTGC) | 0
ACTAGTGCATGGACCGGTTTTCCCGGTAATCCGTATTTGGA (site ACTAGTGCTTC) | 1.36
ACTATAGCATGGACCGGTTTTCCCGGTAATCCGTATTTGCA (site ACTATAGCTTG) | 1.94
ACTCAAGCATGGACCGGTTTTCCCGGTAATCCGTATTTGTT (site ACTCAAGCTAA) | 1.72
ACTCCAGCATGGACCGGTTTTCCCGGTAATCCGTATTTGTG (site ACTCCAGCTCA) | 0.753
ACTCGAGCATGGACCGGTTTTCCCGGTAATCCGTATTTGCT (site ACTCGAGCTAG) | 1.64
ACTCTAGCATGGACCGGTTTTCCCGGTAATCCGTATTTGCC (site ACTCTAGCTGG) | 0
ACTGAATCATGGACCGGTTTTCCCGGTAATCCGTATTTGCC (site ACTGAATCTGG) | 2.1
ACTGCATCATGGACCGGTTTTCCCGGTAATCCGTATTTGGA (site ACTGCATCTTC) | 1.22
ACTGGAACATGGACCGGTTTTCCCGGTAATCCGTATTTGAG (site ACTAGAACTCT) | 1.69
ACTGGAACATGGACCGGTTTTCCCGGTAATCCGTATTTGAG (site ACTCGAACTCT) | 0.239
ACTGGAACATGGACCGGTTTTCCCGGTAATCCGTATTTGAG (site ACTGGAACTCT) | 2.11
ACTGGAACATGGACCGGTTTTCCCGGTAATCCGTATTTGAG (site ACTTGAACTCT) | 0.0249
